Assay results: US20100004202A1, “Quaternary ammonium-functionalized-POSS compounds” (NDSU Research Foundation, priority 2008, published 2010)

What was measured:
Solubility in methanol = format: physicochemical
Source text: The octasilane-POSS, which was insoluble in methanol, was rendered soluble in methanol after the derivatization to Q-POSS.

[1] = test system: Escherichia coli ATCC 12435; assay: Antimicrobial activity of Q-POSS in solution, bacterial log reduction; format: cell-based; details: equal concentration 9.63×10^−5 moles/ml; 2 hrs at room temperature
Protocol: Antimicrobial characterization. The antimicrobial activity of the Q-POSS in methanol was determined as follows. Stocks of Escherichia coli ATCC 12435 and Staphylococcus aureus ATCC 25923 were maintained weekly at 4° C. on LBA and TSB, respectively. Broth cultures of E. coli (LBB) and S. aureus (TSB) were prepared by inoculating one colony into 10 ml of broth and incubating at 37° C. with shaking. Overnight cultures were pelleted via centrifugation (10 min at 4500 rpm), washed twice in 0.9% NaCl, and re-suspended to a 0.5 McFarland turbidity standard (˜10^8 cells/ml). Q-POSS (2 μL) was added to the bacterial suspension (1 mL) previously dispensed into a well of a sterile 24-well polystyrene plate. The plates were then placed on an orbital shaker and allowed to incubate for 2 hrs at room temperature. Each Q-POSS/bacterial suspension (0.1 mL of each) was immediately transferred to D/E neutralization medium (0.9 ml) in a 1.5 mL microcentrifuge tube, and serially diluted (1:10) in D/E medium. […] After 24 hr of incubation, the plates were removed from the incubator and photographed with a digital camera to quantify bacterial growth in solution. […] Methanol was also evaluated for antimicrobial activity as it was used to solublize the Q-POSS for biological evaluations. […]

E. coli = assay: Minimum inhibitory concentration (MIC); format: cell-based; details: overnight incubation 37° C., absorbance at 600 nm
Protocol: The minimum inhibitory concentration (MIC), of Q-POSS compounds and non-Q-POSS compounds were compared and the results are shown in Table 4. As used herein, MIC refers to the lowest concentration of an antimicrobial agent that will inhibit the visible growth of a microorganism after overnight incubation. The procedure was carried out by serially diluting the antimicrobial agent in growth medium and adding the appropriate microorganism. Three 200 μl aliquots of each dilution (inoculated with the appropriate microorganism) were transferred to a 96-well plate and allowed to incubate overnight at the appropriate temperature (37° C. for biomedical microorganisms such as E. coli). The plates were then measured for absorbance at 600 nm to determine microbial growth.

C[SiH](C)O[Si]12O[Si]3(O[SiH](C)C)O[Si]4(O[SiH](C)C)O[Si](O[SiH](C)C)(O1)O[Si]1(O[SiH](C)C)O[Si](O[SiH](C)C)(O2)O[Si](O[SiH](C)C)(O3)O[Si](O[SiH](C)C)(O4)O1 [octasilane-POSS, Octasilane-POSS]
solubility in methanol (Solubility in methanol): insoluble

Benzalkonium chloride
Log Reduction against E. coli [1]: 7.0 | MIC against E. coli (E. coli): 50 µg/mL
